Reference: ChEMBL document CHEMBL1157539, “Thousands of chemical starting points for antimalarial lead identification” (Nature, 2010)

The molecules below were run on Plasmodium falciparum (assay: GSK_TCMDC: Inhibition of Plasmodium falciparum 3D7 in whole erythrocytes, using parasite LDH activity as an index of growth.). Details: Plasmodium falciparum, 3D7.
Type: functional, organism-based

In order of rising XC50:
1. CC1(C)N=C(N)N=C(N)N1OCc1cccc2c1ccc1ccccc12  3.2 nM
2. CC1(C)N=C(N)N=C(N)N1c1cccc(C(F)(F)F)c1  8.62 nM
3. CCOC(=O)N1CCN(CCCNc2c3ccc(Cl)cc3nc3ccc(OC)cc23)CC1  104 nM
4. CN(C)CCN(C)Cc1ccc(-c2ccc3c(Nc4ccc(F)cc4Cl)ccnc3c2)o1  118 nM
5. COc1cccc2cc(C(=O)N[C@@H](CC(C)C)C(=O)N[C@H](/C=N/NC(=O)c3ccccc3)Cc3c[nH]cn3)oc12  130 nM
6. CN1CCCC(CN2CCN(Cc3cccc(-c4ccc(-c5nc6cc(C(F)(F)F)ccc6[nH]5)cc4)c3)CC2)C1 (configuration not stated)  145 nM
7. CCNc1cc(C(=O)N[C@@H](Cc2ccccc2)[C@H](O)CNC2(C)CCCCC2)cc(N2CCCCS2(=O)=O)c1  156 nM
8. FC(F)(F)c1ccc2[nH]c(-c3ccc(-c4cccc(CN5CCN(CCN6CCOCC6)CC5)c4)cc3)nc2c1  160 nM
9. c1ccc2cc3c(NCCN4CCOCC4)ccnc3cc2c1  168 nM
10. COc1cccc(NC(=O)Nc2ccc(Nc3nc(C)cc(N(C)C)n3)cc2)c1  169 nM
11. NCCNC(=O)c1ccc(-c2cnc3[nH]cc(-c4ccc(C(N)=O)cc4)c3c2)cc1  171 nM
12. Oc1ccc2ccccc2c1CNCCC1CCCCC1  174 nM
13. CC(=O)N/N=C/[C@H](CCc1ccccc1)NC(=O)[C@H](CC(C)C)NC(=O)c1ccc(OCCN2CCOCC2)cc1  222 nM
14. COc1ccc(C=NN=c2cc(C)[nH]c3c(C)cccc23)c2ccccc12  224 nM
15. N=C1SC(=Cc2cn[nH]c2-c2ccc(F)cc2)C(=O)N1c1nccs1  225 nM
16. O=C(Nc1cccc(-c2csc(-c3nc4ccccc4[nH]3)c2)c1)c1cccnc1  230 nM
17. N=c1n(CCN2CCCC2)c2ccccc2n1CC(O)c1ccc(Cl)c(Cl)c1 (configuration not stated)  277 nM
18. OC(CNC12CC3CC(CC(C3)C1)C2)c1cccc(C(F)(F)F)c1 (configuration not stated)  301 nM
19. O=C(Nc1ccc(-c2csc(-c3nc4ccccc4[nH]3)c2)cc1)Nc1ccc(F)c(F)c1F  330 nM
20. Cc1ccc(C(=O)Nc2cccc(-c3ccc(N4CCN(C)CC4)nn3)c2)cc1[N+](=O)[O-]  334 nM
21. Cc1ccc(Nc2nc3cc(N(C)c4ccnc(Nc5cccc(CCS(C)(=O)=O)c5)n4)ccc3n2C)cc1  339 nM
22. CN(C)Cc1ccc(-c2cccc(Nc3nccc(NCC(O)c4ccccc4)n3)c2)cc1 (configuration not stated)  373 nM
23. Cc1[nH]c(C)c(-c2ccc(-c3ccc(OCC(F)(F)F)cc3)nc2)c(=O)c1Cl  389 nM
24. CC(C)CCNCC(O)Cn1c2ccc(Cl)cc2c2cc(Cl)ccc21 (configuration not stated)  447 nM
25. Cn1cncc1C(=O)Nc1cccc(-c2cccc(-c3nc4cc(F)ccc4[nH]3)c2)c1  493 nM
26. CCn1c2c(c(=N)c3ccccc31)CCC2  505 nM
27. COc1c(C2CCN(CCCCNC(=O)c3ccc(-c4ccc(C#N)cc4)nc3)CC2)ccc2c1CCCC2  530 nM
28. CCOc1ccc(-c2nc(NC(=O)COc3ccc(OC)cc3)sc2C)cc1  541 nM
29. COc1ccc2ncc(F)c(CCN3C[C@H](CNCc4cc(C#N)c5c(c4)OCCO5)[C@H](O)C3)c2n1  582 nM
30. N=C(N)NN=Cc1ccc2c(c1)Cc1ccccc1-2  586 nM
31. NC(=O)c1cccc(CNC(=O)NC[C@H]2CN(Cc3ccc(Cl)c(Cl)c3)CCO2)c1  586 nM
32. COc1cccc2c(N/N=C/c3ccccc3[N+](=O)[O-])ccnc12  588 nM
33. CN(CCc1ccccn1)Cc1ccc(-c2ccc(-c3nc4ccccc4[nH]3)s2)cc1  588 nM
34. CN1CCN(c2cc(NC(=O)c3ccc(-c4ccc(Cl)cc4)cc3)ccc2Cl)CC1  613 nM
35. O=C(NCCCCN1CCC(c2ccc(C(F)(F)F)cc2C(F)(F)F)CC1)c1ccc(NC(=O)c2ccc(Cl)cc2)cc1  613 nM
36. Cc1ccc(NC(=O)NC2CCN(CCC(NC(=O)Cc3ccccc3)c3ccc(Cl)c(Cl)c3)CC2)cc1 (configuration not stated)  619 nM
37. CN1CCN(c2ccnc3cc4c(cc23)N(C(=O)Nc2ccc3c(c2)CCCC3=O)CC4)CC1  623 nM
38. CC(C)CNCc1ccc(-c2cccc(-c3nc4ccccc4[nH]3)c2)cc1  626 nM
39. CCNc1cc(C(=O)N[C@@H](Cc2ccccc2)[C@H](O)CNC2C3CC4CC(C3)CC2C4)cc(N2CCCCS2(=O)=O)c1 (some centres not stated)  668 nM
40. CC(O)C1CCCCN1C(=O)c1cccc(-c2ccc(-c3nc4cc(C(F)(F)F)ccc4[nH]3)cc2)c1 (configuration not stated)  690 nM
41. Cc1ccccc1C1CCN(c2ncc(C(=O)NC3CC3)cc2Cl)CC1  697 nM
42. O=C(NCCc1cccc(Cl)c1Cl)c1cnc(N2CCN(c3ccncc3)CC2)c(Cl)c1  702 nM
43. N=C(/N=C(/NCCCCCCN/C(=N\C(=N)Nc1ccc(Cl)cc1)N1CCOCC1)N1CCOCC1)Nc1ccc(Cl)cc1  713 nM
44. C[C@@H]([C@@H](CCCc1ccc(Cl)cc1)C(=O)N[C@H](C(=O)Nc1cccnc1)C(C)(C)C)N(O)C=O  719 nM
45. Cc1ccccc1CNc1noc(-c2c(F)cccc2Cl)n1  722 nM
46. Cc1cc(NC(=O)c2cc(S(=O)(=O)N3CCCCC3)ccc2C)no1  725 nM
47. COc1ccc(Nc2nc(N)c3cc(OC)c(OC)cc3n2)cc1OC  732 nM
48. Cc1cccc(Nc2nc(NCCCCN)nc3cc[nH]c(=O)c23)c1  733 nM
49. CCN(CC)CC(O)Cc1c2ccc([N+](=O)[O-])cc2nc2cc(OC)c(OC)cc12 (configuration not stated)  739 nM
50. Cc1nc(Nc2ccc(F)cc2)nc(N2CCc3ccccc3C2C)c1CO (configuration not stated)  741 nM
51. CCCNCc1ccc(-c2ccc(CN(CCOC)C(=O)[C@H]3CCCO3)cc2)nc1  745 nM
52. O=C(Nc1ccc(Cl)cc1)c1cccc2nc(C(F)(F)F)[nH]c12  764 nM
53. COc1ccc2[nH]cc(C3CCN(Cc4ccc(NC(=O)c5ccc(-c6ccccc6)cc5)cc4)CC3)c2c1  765 nM
54. O=C(/C=C/c1ccc(Cl)c(Cl)c1)NCCCCCN1CCC(NC(=O)Nc2cccc(F)c2)CC1  769 nM
55. COc1ccc2nc(-c3ccc(C(=O)NCCCN4CCN(c5cc(Cl)ccc5OC)CC4)cc3)[nH]c2c1  772 nM
56. O=C(Cc1c[nH]cn1)Nc1cccc(-c2ccc(-c3nc4cc(C(F)(F)F)ccc4[nH]3)s2)c1  773 nM
57. Oc1ccc(CCNCCCCCCNCCc2ccc(Cl)cc2)c(Cl)c1O  775 nM
58. COc1ccc2c(=NN=Cc3c(OC)ccc4ccccc34)cc(C)[nH]c2c1  777 nM
59. CCN1CCCC1CNC(=O)c1cc2c(-c3ccc(Cl)cc3)nn(C)c2s1 (configuration not stated)  788 nM
60. CC(C)(C)N1CCC(N(Cc2ccc(-c3ccc(C(F)(F)F)cc3)cc2)C(=O)Cn2c(CCc3cccc(F)c3F)cc(=O)c3ccccc32)CC1  789 nM
61. CCOc1cc(C(=O)NC2CCN(Cc3ccccc3)CC2)ccc1-c1nc2cc(Cl)c(F)cc2[nH]1  802 nM
62. CC1(CCc2ccccc2)N=C(N)N(Cc2ccccc2)C(=O)C1c1ccc(Cl)c(Cl)c1 (configuration not stated)  805 nM
63. CCCCNCc1ccc(-c2nc(CN(Cc3ccc(Cl)c(Cl)c3)C(=O)CN(C)C)cs2)cc1  805 nM
64. N#Cc1ccc(N/C(=N\c2ccc(-c3ccccc3)cc2)NCc2cccnc2)c(O)c1  813 nM
65. CC(Cc1ccc(C(=O)OCCOC(=O)c2ccc(CC(C)NCC(O)c3cccc(C(F)(F)F)c3)cc2)cc1)NCC(O)c1cccc(C(F)(F)F)c1 (configuration not stated)  820 nM
66. CCNc1cc(C(=O)N[C@@H](Cc2ccccc2)[C@H](O)CN[C@H](C)C(C)(C)C)cc(N2CCCCS2(=O)=O)c1  820 nM
67. COc1ccc2nccc(N3CCCN(CCNS(=O)(=O)c4ccc5c(c4)NC(=O)CS5)CC3)c2n1  824 nM
68. O=C(NCCCN1CCN(c2cccc(Cl)c2)CC1)c1ccc(-c2nc3cc(Cl)c(Cl)cc3[nH]2)c(F)c1  826 nM
69. CC[C@H](C)CNC(=O)c1cncc(-c2ccc(CNC3Cc4ccccc4C3)cc2)c1  829 nM
70. Cc1nc(NCCc2c[nH]cn2)cc(NCc2ccccc2)n1  833 nM
71. O=C(Cn1c(CCc2cccc(F)c2F)nc(=O)c2ccccc21)N(Cc1ccc(-c2ccc(C(F)(F)F)cc2)cc1)C1CCN(C2CCSCC2)CC1  856 nM
72. Cc1ccc2[nH]c(-c3cc(-c4ccc(CO)cc4)cnc3N)nc2c1  861 nM
73. Cc1c(F)cc(C(=O)NC2CC2)cc1-c1ccc2c(cnn2S(=O)(=O)c2cccs2)c1  862 nM
74. CCCNC(=O)c1cncc(-c2ccc(CNC(CC)c3ccccc3)cc2)c1 (configuration not stated)  876 nM
75. CN(C)c1ccc(CN2CCC(CNC(=O)c3cc(-c4cccc(C(F)(F)F)c4)cs3)C2)cc1 (configuration not stated)  882 nM
76. Cc1c(C)n(C2CCCC2)c2ncnc(OC3CCN(CC(=O)NCC4CC4)CC3)c12  891 nM
77. Cc1cccc(C)c1C1CCN(CCCCNC(=O)c2cc3ccccc3[nH]2)CC1  892 nM
78. COc1ccc2c(c1CNCCCCCCNCc1c(OC)ccc3c1CCCC3)CCCC2  907 nM
79. CNC(=O)c1cnc(Nc2ccc(N3CCN(C)CC3)cc2)nc1Nc1ccccc1OC  928 nM
80. CCCC(=O)Nc1ccc(Cl)c(NC(=O)COc2cc(C)ccc2C(C)C)c1  933 nM
81. CCCCCCCN1CCC(CCNc2ccnc3ccc(OC)cc23)CC1  955 nM
82. Cc1cc(C)n(Cc2ccc(C(=O)NCC3CCCCC3)cc2)n1  957 nM
83. COc1ccccc1C1CCN(C2CCC(NC(=O)/C=C/c3ccc(C(F)(F)F)cc3F)CC2)CC1 (configuration not stated)  990 nM
84. FC(F)(F)c1cc(CNCCCNc2nc3ccncc3[nH]2)ccc1Cl  1010 nM
85. CC(C)CCN1CCCN(Cc2ccc(C(=O)NCc3ccc(Cl)cc3)cc2)CC1  1010 nM
86. C1=C(c2c[nH]c3ccccc23)CCN(Cc2ccccc2)C1  1040 nM
87. Cc1[nH]c(C)c(-c2ccc(Oc3ccc(O)cc3)cc2)c(=O)c1Cl  1040 nM
88. COc1ccc(CCCN2C(=O)C(c3ccccc3)(c3ccccc3)N=C2N)cc1  1050 nM
89. COc1nc(-n2ccc(=N)cc2)nc2ccccc12  1060 nM
90. O=C(Nc1ccc(-c2ccccc2)cc1)Nc1cccc(Cn2cnc(N3CCCNCC3)cc2=O)c1  1080 nM
91. CCN(CC)CCCC(C)Nc1c2ccccc2nc2c1ccc1ccccc12 (configuration not stated)  1090 nM
92. O=S(=O)(Nc1cccc(CCN2CCCCC2CCN2CCCC2)c1)c1ccc(-c2ccccc2)cc1 (configuration not stated)  1090 nM
93. O=C(NCC1CCC(C(=O)NCCN2CCCCC2)CC1)c1ccc(O)c(-c2ccc(Cl)c(Cl)c2)c1 (configuration not stated)  1170 nM
94. COc1cc2nc(N3CCN(C(=O)c4cccc(I)c4)CC3)nc(N)c2cc1OC  1320 nM
95. COc1ccc(NC(=O)C2c3ccccc3C(=O)N(C3CCCC3)C2c2cccs2)c(OC)c1 (configuration not stated)  1480 nM
96. C[C@@H](C(=O)N1CCOCC1)N1CC[C@H](NS(=O)(=O)c2ccc3ccnc(N)c3c2)C1=O  1500 nM
97. CC(C)c1ccc(CN2CCC(CNC(=O)c3cc(-c4cccc(F)c4)cs3)C2)cc1 (configuration not stated)  1660 nM
